Data taken from patent US20230085307A1, “PYRIDAZINONE COMPOUND AND HERBICIDE” (NISSAN CHEMICAL CORPORATION, priority 2019, published 2023).

Key:
persian speedwell [1] = assay: Test Example 4: herbicidal effect by soil treatment (Table 19, symbol R); type: in vivo, Persian speedwell (Veronica persica); details: amount of applied herbicide 320 g/ha
Summary of the method: (§1)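 Emulsion of test compound, water-diluted to predetermined amount, sprayed on soil after sowing (seed depth ~1.5 cm, sterilized diluvial soil). Greenhouse, 25–30° C. Effect graded at three weeks post-spray.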

wild oat [2] = assay: Test Example 4: herbicidal effect by soil treatment (Table 19, symbol I); type: in vivo, wild oat (Avena fatua); details: amount of applied herbicide 320 g/ha
Summary of the method: as §1

green foxtail [3] = assay: Test Example 5: herbicidal effect by foliage application, plastic box (Table 20, symbol G); type: in vivo, green foxtail (Setaria viridis); details: foliage application
Summary of the method: (§2)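 Post-emergence foliar test in sterilized diluvial soil. Compound applied as water-diluted emulsion at a predetermined rate to 14-day-old plants; evaluation at three weeks.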

late watergrass = assay: Test Example 1: herbicidal activity, application before weed generation under submerged conditions (Table 16, symbol A); type: in vivo, late watergrass (Echinochloa oryzicola)
Summary of the method: (§3)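 Emulsion formulation, water-diluted to set dose, was put onto the flooded surface (4 cm depth, alluvial soil) the same day weeds were sown and 2.5-leaf rice transplanted. After 3 weeks at 25-30 °C under glass, each species was rated 0 (≤5% kill) to 5 (≥90% kill).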

false cleavers = assay: Test Example 4: herbicidal effect by soil treatment (Table 19, symbol Q); type: in vivo, false cleavers (Galium spurium); details: amount of applied herbicide 320 g/ha
Summary of the method: as §1

blackgrass [4] = assay: Test Example 4: herbicidal effect by soil treatment (Table 19, symbol J); type: in vivo, blackgrass (Alopecurus myosuroides); details: amount of applied herbicide 320 g/ha
Summary of the method: as §1

velvetleaf [5] = assay: Test Example 5: herbicidal effect by foliage application, plastic box (Table 20, symbol M); type: in vivo, velvetleaf (Abutilon theophrasti); details: foliage application
Summary of the method: as §2

Italian ryegrass [6] = assay: Test Example 4: herbicidal effect by soil treatment (Table 19, symbol K); type: in vivo, Italian ryegrass (Lolium multiflorum); details: amount of applied herbicide 320 g/ha
Summary of the method: as §1

persian speedwell [7] = assay: Test Example 5: herbicidal effect by foliage application, plastic box (Table 20, symbol R); type: in vivo, Persian speedwell (Veronica persica); details: foliage application
Summary of the method: as §2

blackgrass [8] = assay: Test Example 5: herbicidal effect by foliage application, plastic box (Table 20, symbol J); type: in vivo, blackgrass (Alopecurus myosuroides); details: foliage application
Summary of the method: as §2

green foxtail [9] = assay: Test Example 4: herbicidal effect by soil treatment (Table 19, symbol G); type: in vivo, green foxtail (Setaria viridis); details: amount of applied herbicide 320 g/ha
Summary of the method: as §1

rice flat sedge = assay: Test Example 3: herbicidal effect by foliage application, Wagner pot (Table 18, symbol E); type: in vivo, rice flat sedge (Cyperus iria)
Summary of the method: (§4)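 Plants were sown in alluvial soil held under 0.1–0.5 cm standing water and grown 14 days in a greenhouse at 25–30 °C. An emulsifiable formulation, water-diluted to the set dose, was then sprayed onto the foliage, and effects were scored three weeks later using previously defined criteria.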

barnyard grass [10] = assay: Test Example 4: herbicidal effect by soil treatment (Table 19, symbol H); type: in vivo, barnyard grass (Echinochloa crus-galli); details: amount of applied herbicide 320 g/ha
Summary of the method: as §1

windgrass [11] = assay: Test Example 5: herbicidal effect by foliage application, plastic box (Table 20, symbol L); type: in vivo, windgrass (Apera spica-venti); details: foliage application
Summary of the method: as §2

redroot pigweed [12] = assay: Test Example 4: herbicidal effect by soil treatment (Table 19, symbol N); type: in vivo, redroot pigweed (Amaranthus retroflexus); details: amount of applied herbicide 320 g/ha
Summary of the method: as §1

lambsquarters [13] = assay: Test Example 4: herbicidal effect by soil treatment (Table 19, symbol O); type: in vivo, lambsquarters (Chenopodium album); details: amount of applied herbicide 320 g/ha
Summary of the method: as §1

Japanese bulrush = assay: Test Example 1: herbicidal activity, application before weed generation under submerged conditions (Table 16, symbol B); type: in vivo, Japanese bulrush (Schoenoplectus juncoides)
Summary of the method: as §3

oval-leafed pondweed = assay: Test Example 1: herbicidal activity, application before weed generation under submerged conditions (Table 16, symbol C); type: in vivo, oval-leafed pondweed (Monochoria vaginalis)
Summary of the method: as §3

Italian ryegrass [14] = assay: Test Example 5: herbicidal effect by foliage application, plastic box (Table 20, symbol K); type: in vivo, Italian ryegrass (Lolium multiflorum); details: foliage application
Summary of the method: as §2

wild oat [15] = assay: Test Example 5: herbicidal effect by foliage application, plastic box (Table 20, symbol I); type: in vivo, wild oat (Avena fatua); details: foliage application
Summary of the method: as §2

velvetleaf [16] = assay: Test Example 4: herbicidal effect by soil treatment (Table 19, symbol M); type: in vivo, velvetleaf (Abutilon theophrasti); details: amount of applied herbicide 320 g/ha
Summary of the method: as §1

barnyard grass [17] = assay: Test Example 5: herbicidal effect by foliage application, plastic box (Table 20, symbol H); type: in vivo, barnyard grass (Echinochloa crus-galli); details: foliage application
Summary of the method: as §2

windgrass [18] = assay: Test Example 4: herbicidal effect by soil treatment (Table 19, symbol L); type: in vivo, windgrass (Apera spica-venti); details: amount of applied herbicide 320 g/ha
Summary of the method: as §1

barnyard grass [19] = assay: Test Example 3: herbicidal effect by foliage application, Wagner pot (Table 18, symbol H); type: in vivo, barnyard grass (Echinochloa crus-galli)
Summary of the method: as §4

redroot pigweed [20] = assay: Test Example 5: herbicidal effect by foliage application, plastic box (Table 20, symbol N); type: in vivo, redroot pigweed (Amaranthus retroflexus); details: foliage application
Summary of the method: as §2

lambsquarters [21] = assay: Test Example 5: herbicidal effect by foliage application, plastic box (Table 20, symbol O); type: in vivo, lambsquarters (Chenopodium album); details: foliage application
Summary of the method: as §2

chickweed [22] = assay: Test Example 5: herbicidal effect by foliage application, plastic box (Table 20, symbol P); type: in vivo, common chickweed (Stellaria media); details: foliage application
Summary of the method: as §2

southern crabgrass [23] = assay: Test Example 4: herbicidal effect by soil treatment (Table 19, symbol F); type: in vivo, southern crabgrass (Digitaria ciliaris); details: amount of applied herbicide 320 g/ha
Summary of the method: as §1

southern crabgrass [24] = assay: Test Example 5: herbicidal effect by foliage application, plastic box (Table 20, symbol F); type: in vivo, southern crabgrass (Digitaria ciliaris); details: foliage application
Summary of the method: as §2

Chinese sprangletop = assay: Test Example 3: herbicidal effect by foliage application, Wagner pot (Table 18, symbol D); type: in vivo, chinese sprangletop (Leptochloa chinensis)
Summary of the method: as §4

chickweed [25] = assay: Test Example 4: herbicidal effect by soil treatment (Table 19, symbol P); type: in vivo, common chickweed (Stellaria media); details: amount of applied herbicide 320 g/ha
Summary of the method: as §1

[26] = AAH 320 g/ha, evaluated three weeks after application
[27] = amount of applied herbicide 320 g/ha
[28] = 320 g/ha, three weeks after application

## Cc1nn(C)c(=O)c(-c2c(-c3cccc(O)c3)sc3ccc(F)cc23)c1O [2-336]
Persian speedwell [1]
  herbicidal effect on R: persian speedwell: 5 (Herbicidal rate of 90% or more (almost completely withered))
Wild oat [2]
  herbicidal effect on I: wild oat: 0 (Herbicidal rate of 5% or less (almost no effect))
Green foxtail [3]; [26]
  G: green foxtail, herbicidal effect (criteria 0-5): 5 (Herbicidal rate of 90% or more (almost completely withered))
Late watergrass; 320 g/ha applied herbicide
  Herbicidal effect on A: late watergrass (grade 0-5): 0 (Herbicidal rate of 5% or less (almost no effect))
False cleavers
  herbicidal effect on Q: false cleavers: 0 (Herbicidal rate of 5% or less (almost no effect))
Blackgrass [4]
  herbicidal effect on J: blackgrass: 0 (Herbicidal rate of 5% or less (almost no effect))
Velvetleaf [5]; [26]
  M: velvetleaf, herbicidal effect (criteria 0-5): 1 (Herbicidal rate of 5% or more and less than 20%)
Italian ryegrass [6]
  herbicidal effect on K: Italian ryegrass: 3 (Herbicidal rate of 40% or more and less than 70%)
Persian speedwell [7]; [26]
  R: persian speedwell, herbicidal effect (criteria 0-5): 5 (Herbicidal rate of 90% or more (almost completely withered))
Blackgrass [8]; [26]
  J: blackgrass, herbicidal effect (criteria 0-5): 3 (Herbicidal rate of 40% or more and less than 70%)
Green foxtail [9]
  herbicidal effect on G: green foxtail: 5 (Herbicidal rate of 90% or more (almost completely withered))
Rice flat sedge; [27]
  herbicidal effect on E: rice flat sedge: 3 (Herbicidal rate of 40% or more and less than 70%)
Barnyard grass [10]
  herbicidal effect on H: barnyard grass: 4 (Herbicidal rate of 70% or more and less than 90%)
Windgrass [11]; [26]
  L: windgrass, herbicidal effect (criteria 0-5): 4 (Herbicidal rate of 70% or more and less than 90%)
Redroot pigweed [12]
  herbicidal effect on N: redroot pigweed: 5 (Herbicidal rate of 90% or more (almost completely withered))
Lambsquarters [13]
  herbicidal effect on O: lambsquarters: 3 (Herbicidal rate of 40% or more and less than 70%)
Japanese bulrush; 320 g/ha applied herbicide
  Herbicidal effect on B: Japanese bulrush (grade 0-5): 3 (Herbicidal rate of 40% or more and less than 70%)
oval-leafed pondweed; 320 g/ha applied herbicide
  Herbicidal effect on C: oval-leafed pondweed (grade 0-5): 0 (Herbicidal rate of 5% or less (almost no effect))
Italian ryegrass [14]; [26]
  K: Italian ryegrass, herbicidal effect (criteria 0-5): 4 (Herbicidal rate of 70% or more and less than 90%)
Wild oat [15]; [26]
  I: wild oat, herbicidal effect (criteria 0-5): 0 (Herbicidal rate of 5% or less (almost no effect))
Velvetleaf [16]
  herbicidal effect on M: velvetleaf: 3 (Herbicidal rate of 40% or more and less than 70%)
Barnyard grass [17]; [26]
  H: barnyard grass, herbicidal effect (criteria 0-5): 1 (Herbicidal rate of 5% or more and less than 20%)
Windgrass [18]
  herbicidal effect on L: windgrass: 0 (Herbicidal rate of 5% or less (almost no effect))
Barnyard grass [19]; [27]
  herbicidal effect on H: barnyard grass: 5 (Herbicidal rate of 90% or more (almost completely withered))
Redroot pigweed [20]; [26]
  N: redroot pigweed, herbicidal effect (criteria 0-5): 5 (Herbicidal rate of 90% or more (almost completely withered))
Lambsquarters [21]; [26]
  O: lambsquarters, herbicidal effect (criteria 0-5): 4 (Herbicidal rate of 70% or more and less than 90%)
Chickweed [22]; [26]
  P: chickweed, herbicidal effect (criteria 0-5): 5 (Herbicidal rate of 90% or more (almost completely withered))
Southern crabgrass [23]
  herbicidal effect on F: southern crabgrass: 3 (Herbicidal rate of 40% or more and less than 70%)
Southern crabgrass [24]; [26]
  F: southern crabgrass, herbicidal effect (criteria 0-5): 5 (Herbicidal rate of 90% or more (almost completely withered))
Chinese sprangletop; [27]
  herbicidal effect on D: Chinese sprangletop: 0 (Herbicidal rate of 5% or less (almost no effect))
Chickweed [25]
  herbicidal effect on P: chickweed: 3 (Herbicidal rate of 40% or more and less than 70%)

## COc1ccccc1-c1sc2cc(Cl)ccc2c1-c1c(O)c(C)nn(C)c1=O [3-035]
Persian speedwell [1]
  R: persian speedwell, herbicidal effect grade: 1 (Herbicidal rate of 5% or more and less than 20%)
Wild oat [2]
  I: wild oat, herbicidal effect grade: 0 (Herbicidal rate of 5% or less (almost no effect))
Green foxtail [3]; [28]
  G: green foxtail, herbicidal effect grade: 5 (Herbicidal rate of 90% or more (almost completely withered))
Late watergrass; [27]
  Herbicidal effect, A: late watergrass: 3 (Herbicidal rate of 40% or more and less than 70%)
False cleavers
  Q: false cleavers, herbicidal effect grade: 3 (Herbicidal rate of 40% or more and less than 70%)
Blackgrass [4]
  J: blackgrass, herbicidal effect grade: 3 (Herbicidal rate of 40% or more and less than 70%)
Velvetleaf [5]; [28]
  M: velvetleaf, herbicidal effect grade: 4 (Herbicidal rate of 70% or more and less than 90%)
Italian ryegrass [6]
  K: Italian ryegrass, herbicidal effect grade: 2 (Herbicidal rate of 20% or more and less than 40%)
Persian speedwell [7]; [28]
  R: persian speedwell, herbicidal effect grade: 5 (Herbicidal rate of 90% or more (almost completely withered))
Blackgrass [8]; [28]
  J: blackgrass, herbicidal effect grade: 3 (Herbicidal rate of 40% or more and less than 70%)
Green foxtail [9]
  G: green foxtail, herbicidal effect grade: 4 (Herbicidal rate of 70% or more and less than 90%)
Rice flat sedge; 320 g/ha
  herbicidal effect on rice flat sedge (E): 5 (Herbicidal rate of 90% or more (almost completely withered))
Barnyard grass [10]
  H: barnyard grass, herbicidal effect grade: 5 (Herbicidal rate of 90% or more (almost completely withered))
Windgrass [11]; [28]
  L: windgrass, herbicidal effect grade: 4 (Herbicidal rate of 70% or more and less than 90%)
Redroot pigweed [12]
  N: redroot pigweed, herbicidal effect grade: 4 (Herbicidal rate of 70% or more and less than 90%)
Lambsquarters [13]
  O: lambsquarters, herbicidal effect grade: 5 (Herbicidal rate of 90% or more (almost completely withered))
Japanese bulrush; [27]
  Herbicidal effect, B: Japanese bulrush: 3 (Herbicidal rate of 40% or more and less than 70%)
oval-leafed pondweed; [27]
  Herbicidal effect, C: oval-leafed pondweed: 0 (Herbicidal rate of 5% or less (almost no effect))
Italian ryegrass [14]; [28]
  K: Italian ryegrass, herbicidal effect grade: 3 (Herbicidal rate of 40% or more and less than 70%)
Wild oat [15]; [28]
  I: wild oat, herbicidal effect grade: 3 (Herbicidal rate of 40% or more and less than 70%)
Velvetleaf [16]
  M: velvetleaf, herbicidal effect grade: 3 (Herbicidal rate of 40% or more and less than 70%)
Barnyard grass [17]; [28]
  H: barnyard grass, herbicidal effect grade: 4 (Herbicidal rate of 70% or more and less than 90%)
Windgrass [18]
  L: windgrass, herbicidal effect grade: 0 (Herbicidal rate of 5% or less (almost no effect))
Barnyard grass [19]; 320 g/ha
  herbicidal effect on barnyard grass (H): 4 (Herbicidal rate of 70% or more and less than 90%)
Redroot pigweed [20]; [28]
  N: redroot pigweed, herbicidal effect grade: 4 (Herbicidal rate of 70% or more and less than 90%)
Lambsquarters [21]; [28]
  O: lambsquarters, herbicidal effect grade: 4 (Herbicidal rate of 70% or more and less than 90%)
Chickweed [22]; [28]
  P: chickweed, herbicidal effect grade: 5 (Herbicidal rate of 90% or more (almost completely withered))
Southern crabgrass [23]
  F: southern crabgrass, herbicidal effect grade: 3 (Herbicidal rate of 40% or more and less than 70%)
Southern crabgrass [24]; [28]
  F: southern crabgrass, herbicidal effect grade: 4 (Herbicidal rate of 70% or more and less than 90%)
Chinese sprangletop; 320 g/ha
  herbicidal effect on Chinese sprangletop (D): 3 (Herbicidal rate of 40% or more and less than 70%)
Chickweed [25]
  P: chickweed, herbicidal effect grade: 4 (Herbicidal rate of 70% or more and less than 90%)
